Measurements published in patent publication US20140073694A1, “CYSTAMINE ANALOGUES FOR THE TREATMENT OF PARKINSON'S DISEASE” (UNIVERSITE LAVAL, priority 2011, published 2014).
Entries after “also recorded” stand apart in the source; their conditions may differ.

Test: Plasma and brain metabolite levels by HPLC after a single i.p. cystamine injection (dose-response study)
Assay type: in vivo, C57BL/6 mice
Method: Young adult (9-week old, 25 g) male C57BL/6 mice were purchased from Charles River Laboratories (Montréal, QC, Canada). Animals were housed four per cage under standard conditions with free access to food and water, randomized and handled under the same conditions by one investigator. All experiments were performed in accordance with the Canadian Council on Animal Care and were approved by the Institutional Committee of the Centre Hospitalier de l'Université Laval (CHUL). Throughout the experiment, the health status of all mice included in the study was closely monitored. To clearly identify the active intermediate following cystamine injection, as well as to understand its systemic and cerebral metabolism, a single intraperitoneal (i.p.) injection of cystamine was administered to normal adult C57BL/6 male mice using three different doses: 10, 50, and 200 mg/kg, as determined in prior publications (Tremblay et al. 2006; Gibrat et al. 2010). These doses were ultimately compared with saline injections. Cystamine was dissolved in sterile saline (0.9%) and injected 1, 3, 12, 24 and 48 h before killing. Animals were sacrificed under deep anesthesia with ketamine/xylazine and perfused via intracardiac infusion with 0.1 M phosphate-buffered saline. After intracardiac perfusion, brains were collected, snap-frozen in 2-methyl-butane and then stored at −80° C. until cryostat dissection for HPLC analyses. A total of 200 mice were assigned to this study (n=10 per group).
HPLC coupled to fluorescence detection was used in cysteine and cysteamine quantification of both sets of experiments: the dose-response study and in situ cerebral perfusion (ISCP) procedures. Frontal cortex were homogenized in 200 μL of NaHCO3 and then centrifuged at 15 700 g (4° C.) for 20 min. Fifty μl of supernatant were directly derivatized with 30 μL of 4-fluoro-7-sulfamoylbenzo-furazan (ABD-F) reagent. The alkylation reaction was completed at 55° C. for 15 min and stopped with 4.9 μL HCl 12 N. After a 10-min centrifugation at 7500 g (4° C.), the supernatant were immediately injected into the chromatograph consisting of a Waters 717 plus autosampler automatic injector set at 4° C., a Waters 1525 binary pump equipped with an Atlantis dC18 ([…]; 3.9×150 mm) column, and a Waters 2487 Dual Absorbance detector (Waters limited, Lachine, QC, Canada). The excitation was set at 385 nm and emission at 515 nm. The mobile phase, which consisted in 2.5% methanol and 0.1 M ammonium acetate adjusted at pH 4.0, was delivered at 1 mL/min (Santa et al. 2006). Peaks were identified and quantified using Breeze software (Waters limited). HPLC quantifications were normalized to protein concentrations. Protein measurements were determined with a bicinchoninic acid protein assay kit (Pierce, Rockford, Ill., USA) as described by the manufacturer's protocol.
Taurine and hypotaurine were measured by HPLC coupled with UV detection. Supernatant from NaHCO3 brain (bregma 1.54 to −0.58 mm) extracts (see section above for details) were directly derivatized with the reagent dansyl chloride (Sigma-Aldrich, St. Louis, Mo., USA) based on modified published methods (Saller and Czupryna 1989; Calon et al. 1999). Briefly, 50 μL of dansyl chloride (1.2 mg/mL) and 50 μL of sample or standard solution were mixed and then incubated for 30 min at 90° C. After a 10-min centrifugation at 7500 g (4° C.), supernatants were immediately injected into the chromatograph described above. Absorbance was set at 337 nm and the sensitivity at 0.5 absorbance unit full scale. […] Results were obtained using the same method as described above.

[1] = single i.p. cystamine 10, 50 or 200 mg/kg
[2] = single i.p. cystamine 10, 50 or 200 mg/kg, 1-48 h

NCCSSCCN [cystamine, Cystamine]
plasma cysteamine level (cystamine-treated mice, single i.p. dose): undetectable
brain cysteamine level (single i.p. cystamine 50 mg/kg, 1 h post-injection, vs saline): significant increases; also recorded: significantly increased
brain cysteamine level (single i.p. cystamine 200 mg/kg, 1 h post-injection, vs saline): significant increase
plasma hypotaurine level [1]: remained under or close to the detection threshold
plasma taurine level [1]: remained under or close to the detection threshold
brain hypotaurine level [2]: no significant alteration
brain taurine level [2]: no significant alteration
brain cysteamine level (single i.p. cystamine (200 mg/kg per FIG. 7), 3 h post-injection, vs saline): remained significantly elevated; also recorded: significant increase
brain cysteamine level (single i.p. cystamine, all three doses (10, 50, 200 mg/kg), each time point): marked increased in brain cysteamine
plasma cysteine level (single i.p. cystamine, up to 200 mg/kg (data not shown)): did not affect
brain cysteine level (single i.p. cystamine, up to 200 mg/kg, all time points): did not affect; also recorded: stable
